Measurements: article PMC9082971, “Nature-derived epoxy resins: Synthesis, allergenicity, and thermosetting properties of pinoresinol diglycidyl ether” (Toxicology and Industrial Health, 2022)
Where two headings read alike, the source gives them in different places. Blank lines part the entries; values can stand above or below the compound they belong to.

How the values were obtained:
[1] = tested on: KeratinoSens reporter keratinocytes (luciferase gene under control of the ARE element of the AKR1C2 gene); experiment: KeratinoSens ARE-Nrf2 luciferase assay; format: cell-based; details: for ECKS1.5: extrapolated concentration for 1.5 fold luciferase induction; for ECKS4.5: extrapolated concentration for 4.5 fold luciferase induction; for Classification: KeratinoSens, luciferase induction greater than 1.5-fold at non-cytotoxic concentrations
Experimental: (§1) KeratinoSens Assay for Sensitization and Cellular Viability. The KeratinoSens™ assay was performed according to the OECD guidelines ([OECD, 2018]). Compounds were incubated at 12 concentrations (0.98–2000 μM) for 48 h with cinnamic aldehyde as the positive control. The experiment was repeated on three independent occasions.
In Vitro Skin Sensitization: KeratinoSens ARE-Nrf2 Luciferase Assay. […] ECKS1.5 represents the extrapolated concentration for which induction of luciferase activity is above the 1.5 fold threshold (i.e., 50% enhanced luciferase activity). The ECKS4.5 values were used for comparison of sensitizing potency.

[2] = Cellular viability (MTT) in the KeratinoSens assay; format: cell-based; details: human, KeratinoSens reporter keratinocytes, 50% reduction in cellular viability, read-out: Cytotoxicity IC50
Experimental: as §1

model peptide AcPHCKRM = experiment: Reactivity toward the model peptide AcPHCKRM (peptide depletion, HPLC/ESI-MS); details: 10 mM compound, 1 mM AcPHCKRM
Experimental: All solvents were degassed with argon prior to use. […] Monoepoxides PGE, 1 or 2 were prepared in DMSO (40 mM, 100 μL) together with potassium phosphate buffer (100 mM, pH 7.4) (200 μL) and separately added to a vial purged with argon containing AcPHCKRM dissolved in DMSO (4 mM, 100 μL).
Based on our previous studies regarding the chemical reactivity of the epoxide-containing compounds ([O’Boyle et al., 2014]; [Ponting et al., 2019]), the depletion of the nucleophilic hexapeptide Ac-Pro-His-Cys-Lys-Arg-Met-OH (AcPHCKRM) was analyzed in reaction mixtures at pH 7.4 with a 10-fold excess of the respective test chemical in a mixture of phosphate buffer and DMSO.

[3] = set-up: method as in O’Boyle et al., 2014; details: ref O’Boyle et al., 2014, cited from earlier work
mice and guinea pigs = details: cited from earlier work
[4] = tested on: KeratinoSens reporter keratinocytes (luciferase gene under control of the ARE element of the AKR1C2 gene); details: cited from earlier work
[5] = tested on: KeratinoSens reporter keratinocytes; details: read-out: Cytotoxicity IC50; 50% reduction in cellular viability, MTT assay; ref Delaine et al., 2011; cited from earlier work
CBA/Ca mice [6] = details: cited from earlier work
CBA/Ca mice [7] = experiment: Murine local lymph node assay (LLNA); format: in vivo
Experimental: (§2) Experimental Animals. Female CBA/Ca mice, 7 or 9 weeks of age, were purchased from NOVA SCB Charles River, Germany. The mice were housed in HEPA filtered airflow cages and kept on standard laboratory diet and water ad lib. The regional ethics committee, Jordbruksverket, approved the protocol and the procedure was performed in accordance with the guidelines. Sensitization Potential of PinoDGE in Mice. […] Computational Techniques. Reactivity of cysteine residues toward the compounds under investigation was modeled as reactivity toward methanethiolate. Reactivity calculations were carried out at the B3LYP-D3/6–31+G**([Stephens et al., 1994]; [Becke, 1988]; [Slater, 1974]; [Goerigk and Grimme, 2011]; [Grimme et al., 2010]; [Ditchfield et al., 1971]) level of theory in Jaguar (Schrodinger LLC, N. Y. Jaguar, version 7.6, 2009). Further experimental details are contained in the supplementary information. Cross-Linking Procedure and Thermogravimetric Analysis (TGA).
(§3) In Vivo Skin Sensitizing Potency Studies. The LLNA was used to assess the skin sensitizing potency of PinoDGE. […] The standard vehicle, acetone: olive oil (AOO) (4:1), was initially used as the vehicle. […] Pure acetone is described as a suitable vehicle in the LLNA ([Jowsey et al., 2008]); however, a closer match to AOO was desired, leading to the choice of AOO 16:1.

[8] = Solubility in the LLNA test vehicle; format: physicochemical
Description: as §3

[9] = Cross-linking with TETA and thermogravimetric analysis (TGA); format: physicochemical
Experimental: as §2
Cross-Linking of PinoDGE with TETA. […] Initial decomposition temperature (IDT) indicated the apparent thermal stability of the epoxy resin.

[10] = cross-linked with TETA, TGA under nitrogen
[11] = cured epoxy resin, Horwitz-Metzger equation
[12] = after 45 min, pH 7.4 phosphate buffer/DMSO
[13] = LLNA, ref Niklasson et al., 2009
[14] = AOO 16:1, 10% w/v (0.21 M), precipitating from solution on the ears of the mice

Compound: COc1ccccc1OCC1CO1 (centres unmarked) [Compound 1, 2-((2-methoxyphenoxy)methyl)oxirane]
ECKS1.5 [1]: 23 µM
ECKS4.5 [1]: 64 µM

Compound: O=[N+]([O-])c1ccccc1OCC1CO1 (centres unmarked) [Compound 2, 2-((2-nitrophenoxy)methyl)oxirane]
IC50 at 48 h [2]: 88 µM
peptide remaining (model peptide AcPHCKRM; after 40 min, pH 7.4): 28%
peptide remaining (model peptide AcPHCKRM; at 200 min, pH 7.4): 24%
Classification [1]: Sensitizer
ECKS1.5 [1]: 12 µM
ECKS4.5 [1]: 37 µM

Compound: CC(C)(c1ccc(OCC2CO2)cc1)c1ccc(OCC2CO2)cc1 (centres unmarked) [DGEBA, diglycidyl ether of bisphenol A]
IDT (initial decomposition temperature) [3, 10]: 358 ˚C
Rmax (maximum weight loss rate) [3, 10]: −1.58 %/˚C
Tmax (temperature at maximum rate of weight loss) [3, 10]: 382 ˚C
Ea (activation energy for decomposition) [3, 11]: 22.9 kcal/mol
peptide remaining (model peptide AcPHCKRM; [12]): 37%
peptide remaining (model peptide AcPHCKRM; after 85 min, pH 7.4): 18%
peptide remaining (model peptide AcPHCKRM; after 205 min, pH 7.4): 7%
Classification as sensitizer (mice and guinea pigs; mice and guinea pigs, ref Thorgeirsson et al., 1978, Delaine et al., 2011, Pontén et al., 2002, Basketter et al., 2005): strong sensitizers
ECKS1.5 [4]: 5.2 µM
ECKS4.5 [4]: 10 µM
IC50 [5]: 22 µM
EC3 (CBA/Ca mice [6]; [13]): 0.036 M

Compound: c1cc(OCC2CO2)ccc1Cc1ccc(OCC2CO2)cc1 (centres unmarked) [DGEBF, diglycidyl ether of bisphenol F]
Classification as sensitizer (mice and guinea pigs; in vivo): strong sensitizers

EC3 (CBA/Ca mice [7]; control experiment in AOO 16:1): 11.8 % w/v
Compound: CCCCCCC(C=O)=Cc1ccccc1 [HCA, hexylcinnamic aldehyde, reference compound]
EC3 (CBA/Ca mice [6]; reported values in 4:1 AOO, ref OECD, 2010): 4.4–14.7 % w/v

Compound: c1ccc(OCC2CO2)cc1 (centres unmarked) [PGE, phenylglycidyl ether]
peptide remaining (model peptide AcPHCKRM; after 40 min, pH 7.4): 35%
peptide remaining (model peptide AcPHCKRM; at 200 min, pH 7.4): 26%
Imax (fold induction) ([4]; average maximal induction of gene activity, ref Delaine et al., 2011): 56 fold induction
ECKS1.5 ([4]; extrapolated concentration for 1.5 fold luciferase induction, ref Delaine et al., 2011): 16 µM
ECKS4.5 ([4]; extrapolated concentration for 4.5 fold luciferase induction, ref Delaine et al., 2011): 63 µM
IC50 [5]: 182 µM
EC3 (CBA/Ca mice [6]; [13]): 0.031 M
LLNA classification (CBA/Ca mice [6]; ref Niklasson et al., 2009): strong sensitizer

Solubility in vehicle ([8]; AOO 16:1, precipitated from a 10% w/v solution): up to 8 % w/v
Solubility in vehicle ([8]; AOO (4:1)): ≤ 5 % w/v
solubility ([8]; acetone:olive oil (AOO) 4:1, organic solvent or mixture, AOO (4:1)): ≤ 110 mM
solubility ([8]; acetone:olive oil (AOO) 16:1, organic solvent or mixture, AOO 16:1, precipitated from a 10% w/v solution): ≤ 170 mM
maximum rate of degradation (Rmax) relative to DGEBA ([9]; Rmax as percentage of that of DGEBA): 58%
IDT (initial decomposition temperature) [9, 10]: 338 ˚C
Rmax (maximum weight loss rate) [9, 10]: −0.92 %/˚C
Tmax (temperature at maximum rate of weight loss) [9, 10]: 370 ˚C
Ea (activation energy for decomposition) [9, 11]: 30.6 kcal/mol
IDT lower than that of DGEBA ([9]; difference to DGEBA polymer): 20 °C
Tmax lower than that of DGEBA ([9]; difference to DGEBA polymer): 12 °C
(3H)thymidine incorporation (CBA/Ca mice [7]; AOO 4:1, 0.10% w/v (0.0021 M)): 280 dpm/lymph node
SI (CBA/Ca mice [7]; AOO 4:1, 0.10% w/v (0.0021 M)): 0.94
(3H)thymidine incorporation (CBA/Ca mice [7]; AOO 4:1, 1.0% w/v (0.021 M)): 368 dpm/lymph node
SI (CBA/Ca mice [7]; AOO 4:1, 1.0% w/v (0.021 M)): 1.23
(3H)thymidine incorporation (CBA/Ca mice [7]; AOO 4:1, 2.5% w/v (0.053 M)): 166 dpm/lymph node
SI (CBA/Ca mice [7]; AOO 4:1, 2.5% w/v (0.053 M)): 0.56
(3H)thymidine incorporation (CBA/Ca mice [7]; AOO 4:1, 3.0% w/v (0.064 M)): 325 dpm/lymph node
SI (CBA/Ca mice [7]; AOO 4:1, 3.0% w/v (0.064 M)): 1.09
(3H)thymidine incorporation (CBA/Ca mice [7]; AOO 4:1, 5.0% w/v (0.11 M)): 327 dpm/lymph node
SI (CBA/Ca mice [7]; AOO 4:1, 5.0% w/v (0.11 M)): 1.10
(3H)thymidine incorporation (CBA/Ca mice [7]; AOO 16:1, 2.0% w/v (0.043 M)): 130 dpm/lymph node
SI (CBA/Ca mice [7]; AOO 16:1, 2.0% w/v (0.043 M)): 0.52
(3H)thymidine incorporation (CBA/Ca mice [7]; AOO 16:1, 4.0% w/v (0.085 M)): 180 dpm/lymph node
SI (CBA/Ca mice [7]; AOO 16:1, 4.0% w/v (0.085 M)): 0.73
(3H)thymidine incorporation (CBA/Ca mice [7]; AOO 16:1, 6.0% w/v ([…])): 195 dpm/lymph node
SI (CBA/Ca mice [7]; AOO 16:1, 6.0% w/v ([…])): 0.79
(3H)thymidine incorporation (CBA/Ca mice [7]; AOO 16:1, 8.0% w/v (0.17 M)): 480 dpm/lymph node
SI (CBA/Ca mice [7]; AOO 16:1, 8.0% w/v (0.17 M)): 1.94
(3H)thymidine incorporation (CBA/Ca mice [7]; [14]): 180 dpm/lymph node
SI (CBA/Ca mice [7]; [14]): 0.73
EC3 (CBA/Ca mice [7]; LLNA, AOO 4:1 and AOO 16:1): > 0.17 M
SI (CBA/Ca mice [7]; any of the concentrations tested, both vehicles): ≤ 3
Compound: COc1cc([C@H]2OC[C@H]3[C@@H]2CO[C@@H]3c2ccc(OCC3CO3)c(OC)c2)ccc1OCC1CO1 (some centres unmarked) [PinoDGE, pinoresinol diglycidyl ether]
IC50 at 48 h [2]: 24 µM
peptide remaining (model peptide AcPHCKRM; [12]): 8%
peptide remaining (model peptide AcPHCKRM; after 85 min, pH 7.4): 5%
Classification [1]: skin sensitizer
ECKS1.5 [1]: 2.5 µM
ECKS4.5 [1]: 7.4 µM
LLNA classification (CBA/Ca mice [7]; concentrations up to 0.17 M): not classified as a skin sensitizer
